Measured values taken from US20120171229A1, “SYNTHETIC NANOCARRIERS WITH REACTIVE GROUPS THAT RELEASE BIOLOGICALLY ACTIVE AGENTS” (Selecta Biosciences, Inc., priority 2010, published 2012).

Experiment: Release by thiol addition and hydride reduction (TLC)
Type: physicochemical
Conditions: water with a drop of acetic acid, 2 hours
Description: A portion of the amide was dissolved in water with a drop of acetic acid. This yellow solution was divided into two portions. One portion was treated with sodium dithionite, a reducing agent, and the other was treated with 2-mercaptoethanol. After 2 hours, the samples were diluted with water and extracted with ethyl acetate.

Question: With `CN1CCN(C(=O)CC(C)(C)C2=CC(=O)c3ccccc3C2=O)CC1` [Example 8] as the compound, how does the “Release by thiol addition, TLC result” value (2-mercaptoethanol) read?
Answer: the amide had been consumed with a colorless, non-polar product (lactone) being formed

Question: And the “Release by hydride reduction, TLC result” value (sodium dithionite)?
Answer: the amide had been consumed with a colorless, non-polar product (lactone) being formed
